Like-named read-outs stand apart in the source and are kept apart here.

A short description of data set [1]: Comparative intrinsic dissolution testing (Wood apparatus). It is filed as physicochemical. Particulars: 900 mL deionized water, 75 rpm, sample compressed at 1.5 metric tons for 1 minute. The method, then: Intrinsic dissolution rate (IDR) measurements were performed using a Wood apparatus. Samples were prepared by compressing 250-300 mg sample at 1.5 metric tons for 1 minute. A dissolution medium consisting of 900 mL deionized water, and rotation speed of 75 rpm, was used for each experiment.

For data set [2] the following is noted: uncapped samples, 40° C./75% RH. The method, then:
PXRD diffractograms were recorded on a Bruker D8 Discover powder X-ray diffractometer (Bruker AXS LLC, Karlsruhe, Germany). The generator was a Incoatec Microfocus Source (IμS) Cu tube (λ=1.54060 Å) with a voltage of 50 kV and current of 1.00 mA, using a divergence slit of 0.1 mm and collimator of 2.0 mm. For each sample, two frames were collected using a still scan with a PILATUS3 R 100K-A detector at the distance of 294.2 mm from the sample. Raw data were evaluated using the program DIFFRAC.EVA (Bruker AXS LLC, Karlsruhe, Germany).

The conditions of data set [3]: pH values 1.2, 4.5 and 6.8.
For data set [4] the following is noted: per CDER review, NDA 202192; cited from earlier work.

With `CC1=CC(=O)NS(=O)(=O)O1.N#CCC(C1CCCC1)n1cc(-c2ncnc3[nH]ccc23)cn1` (stereo not shown) [Ruxolitinib acesulfamate Form APO-II], in data set [1], the “Intrinsic Dissolution Rate” value was determined as 0.0767 mg min^−1 cm^−2. In data set [2] (at least 5 months), the “Change in the crystalline form (PXRD)” value is recorded as “no change in the crystalline form occurred”.
Turning to `CS(=O)(=O)O.N#CC[C@H](C1CCCC1)n1cc(-c2ncnc3[nH]ccc23)cn1` [Ruxolitinib mesylate Form APO-I], the Solubility entry in data set [3] is reported as “high solubility”. In data set [2] (at least 8 months), the “Change in the crystalline form (PXRD)” value was “no change in the crystalline form occurred”.
`CC1=CC(=O)NS(=O)(=O)O1.N#CC[C@H](C1CCCC1)n1cc(-c2ncnc3[nH]ccc23)cn1` [Ruxolitinib acesulfamate Form APO-I]: in data set [1], the “Intrinsic Dissolution Rate” value came out at 0.2261 mg min^−1 cm^−2. For the same compound, the “Change in the crystalline form (PXRD)” value in data set [2] (8 weeks) was “no change in the crystalline form occurred”.
As to `N#CC[C@H](C1CCCC1)n1cc(-c2ncnc3[nH]ccc23)cn1` [Ruxolitinib phosphate], the “Intrinsic Dissolution Rate” value in data set [1] is 0.0545 mg min^−1 cm^−2. Further, in data set [4], the “Biopharmaceutics Classification System (BCS) class” value is given as “Class I”, the Permeability result was “high permeability” and the Solubility entry is listed as “high solubility”.
`N#CCC(C1CCCC1)n1cc(-c2ncnc3[nH]ccc23)cn1.O=S(=O)(O)c1cccc2c(S(=O)(=O)O)cccc12` (stereo not shown) [Ruxolitinib napadisylate Form APO-I]: the “Change in the crystalline form (PXRD)” value in data set [2] (at least 5 months) was “no change in the crystalline form occurred”.
In the case of `N#CCC(C1CCCC1)n1cc(-c2ncnc3[nH]ccc23)cn1.O=S(=O)(O)CCS(=O)(=O)O` (stereo not shown) [Ruxolitinib edisylate Form APO-I], the “Intrinsic Dissolution Rate” value in data set [1] came to 0.1711 mg min^−1 cm^−2. In addition, the “Change in the crystalline form (PXRD)” value in data set [2] (at least 5 months) is listed as “no change in the crystalline form occurred”.
